{"source": "ChEMBL document CHEMBL1201862", "about": "“PubChem BioAssay data set” (2004)", "experiment_in_all_cases": "NCI tumour cell line growth inhibition, 48 h", "key": {"[1]": {"test_system": "CAKI-1"}, "[2]": {"test_system": "EKVX"}, "[3]": {"test_system": "HL-60"}, "[4]": {"test_system": "T47D"}, "[5]": {"test_system": "OVCAR-3"}, "[6]": {"test_system": "NCI-H522"}, "[7]": {"test_system": "TK-10"}, "[8]": {"test_system": "PC-3"}, "[9]": {"test_system": "UACC-62"}, "[10]": {"test_system": "SF-268"}, "[11]": {"test_system": "SK-OV-3"}, "[12]": {"test_system": "SK-MEL-2"}, "[13]": {"test_system": "MDA-MB-435"}, "[14]": {"test_system": "KM12"}, "[15]": {"test_system": "SNB-75"}, "[16]": {"test_system": "BT-549"}, "[17]": {"test_system": "HCT-116"}, "[18]": {"test_system": "IGROV-1"}, "[19]": {"test_system": "MDA-MB-231"}}, "note": "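Briefly, cells in 96-well plates were exposed to five compound concentrations for 48 h, and endpoints were estimated by linear interpolation. GI50 = concentration required for 50% inhibition of growth.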 The source made the active and inactive calls. Cut-off read from the data, not from the text of the source: active = GI50 up to about 1.1 µM and inactive = higher."}
{"smiles": "O=C(CNc1ccc(Cl)cc1)Nn1c(-c2ccccc2)nc2ccccc2c1=O", "values": [{"measurement": "GI50", "setting": "[1]", "result": "11.4 µM (inactive)"}, {"measurement": "GI50", "setting": "[2]", "result": "18.1 µM (inactive)"}, {"measurement": "GI50", "setting": "[3]", "result": "6.65 µM (inactive)"}, {"measurement": "GI50", "setting": "[4]", "result": "4.83 µM (inactive)"}, {"measurement": "GI50", "setting": "[5]", "result": "12.1 µM (inactive)"}, {"measurement": "GI50", "setting": "[6]", "result": "2.99 µM (inactive)"}, {"measurement": "GI50", "setting": "[7]", "result": "16.4 µM (inactive)"}, {"measurement": "GI50", "setting": "[8]", "result": "12.6 µM (inactive)"}, {"measurement": "GI50", "setting": "[9]", "result": "3.89 µM (inactive)"}, {"measurement": "GI50", "setting": "[10]", "result": "4.62 µM (inactive)"}, {"measurement": "GI50", "setting": "[11]", "result": "10.1 µM (inactive)"}, {"measurement": "GI50", "setting": "[12]", "result": "16 µM (inactive)"}, {"measurement": "GI50", "setting": "[13]", "result": "8.17 µM (inactive)"}, {"measurement": "GI50", "setting": "[14]", "result": "10.8 µM (inactive)"}, {"measurement": "GI50", "setting": "[15]", "result": "10.1 µM (inactive)"}, {"measurement": "GI50", "setting": "[16]", "result": "2.32 µM (inactive)"}, {"measurement": "GI50", "setting": "[17]", "result": "1.62 µM (inactive)"}, {"measurement": "GI50", "setting": "[18]", "result": "3.84 µM (inactive)"}, {"measurement": "GI50", "setting": "[19]", "result": "4.79 µM (inactive)"}]}
{"smiles": "COC(=O)c1c(O)ccc2c1c1c(n2Cc2ccc(Cl)cc2Cl)C(=O)c2ccccc2C1=O", "values": [{"measurement": "GI50", "setting": "[1]", "result": "12.2 µM (inactive)"}, {"measurement": "GI50", "setting": "[2]", "result": "10.4 µM (inactive)"}, {"measurement": "GI50", "setting": "[3]", "result": "13.8 µM (inactive)"}, {"measurement": "GI50", "setting": "[4]", "result": "1.97 µM (inactive)"}, {"measurement": "GI50", "setting": "[5]", "result": "6.37 µM (inactive)"}, {"measurement": "GI50", "setting": "[6]", "result": "7.46 µM (inactive)"}, {"measurement": "GI50", "setting": "[7]", "result": "14.9 µM (inactive)"}, {"measurement": "GI50", "setting": "[8]", "result": "7.74 µM (inactive)"}, {"measurement": "GI50", "setting": "[10]", "result": "10.1 µM (inactive)"}, {"measurement": "GI50", "setting": "[11]", "result": "14.3 µM (inactive)"}, {"measurement": "GI50", "setting": "[12]", "result": "14.2 µM (inactive)"}, {"measurement": "GI50", "setting": "[13]", "result": "7.91 µM (inactive)"}, {"measurement": "GI50", "setting": "[14]", "result": "3.41 µM (inactive)"}, {"measurement": "GI50", "setting": "[15]", "result": "17.9 µM (inactive)"}, {"measurement": "GI50", "setting": "[16]", "result": "13.2 µM (inactive)"}, {"measurement": "GI50", "setting": "[17]", "result": "3.91 µM (inactive)"}, {"measurement": "GI50", "setting": "[18]", "result": "11.2 µM (inactive)"}, {"measurement": "GI50", "setting": "[19]", "result": "10.9 µM (inactive)"}]}
{"smiles": "C#CCNC(Cc1ccccc1)C(=O)O", "note": "(stereo not drawn)", "values": [{"measurement": "GI50", "setting": "[1]", "result": "> 100 µM (inactive)"}, {"measurement": "GI50", "setting": "[2]", "result": "> 100 µM (inactive)"}, {"measurement": "GI50", "setting": "[3]", "result": "> 100 µM (inactive)"}, {"measurement": "GI50", "setting": "[4]", "result": "> 100 µM (inactive)"}, {"measurement": "GI50", "setting": "[5]", "result": "> 100 µM (inactive)"}, {"measurement": "GI50", "setting": "[6]", "result": "> 100 µM (inactive)"}, {"measurement": "GI50", "setting": "[7]", "result": "> 100 µM (inactive)"}, {"measurement": "GI50", "setting": "[8]", "result": "> 100 µM (inactive)"}, {"measurement": "GI50", "setting": "[9]", "result": "> 100 µM (inactive)"}, {"measurement": "GI50", "setting": "[10]", "result": "> 100 µM (inactive)"}, {"measurement": "GI50", "setting": "[11]", "result": "> 100 µM (inactive)"}, {"measurement": "GI50", "setting": "[12]", "result": "> 100 µM (inactive)"}, {"measurement": "GI50", "setting": "[13]", "result": "> 100 µM (inactive)"}, {"measurement": "GI50", "setting": "[14]", "result": "> 100 µM (inactive)"}, {"measurement": "GI50", "setting": "[15]", "result": "> 100 µM (inactive)"}, {"measurement": "GI50", "setting": "[16]", "result": "> 100 µM (inactive)"}, {"measurement": "GI50", "setting": "[17]", "result": "> 100 µM (inactive)"}, {"measurement": "GI50", "setting": "[18]", "result": "> 100 µM (inactive)"}, {"measurement": "GI50", "setting": "[19]", "result": "> 100 µM (inactive)"}]}
{"smiles": "COC(=O)C1(C)C=CC(=O)C2(C)C1C(O)C1OC3CC(c4ccoc4)C(C)=C3C1(C)C2CC(=O)O", "note": "(stereo not drawn)", "values": [{"measurement": "GI50", "setting": "[1]", "result": "> 100 µM (inactive)"}, {"measurement": "GI50", "setting": "[2]", "result": "> 100 µM (inactive)"}, {"measurement": "GI50", "setting": "[3]", "result": "> 100 µM (inactive)"}, {"measurement": "GI50", "setting": "[4]", "result": "> 100 µM (inactive)"}, {"measurement": "GI50", "setting": "[5]", "result": "> 100 µM (inactive)"}, {"measurement": "GI50", "setting": "[6]", "result": "> 100 µM (inactive)"}, {"measurement": "GI50", "setting": "[7]", "result": "> 100 µM (inactive)"}, {"measurement": "GI50", "setting": "[8]", "result": "> 100 µM (inactive)"}, {"measurement": "GI50", "setting": "[9]", "result": "> 100 µM (inactive)"}, {"measurement": "GI50", "setting": "[10]", "result": "> 100 µM (inactive)"}, {"measurement": "GI50", "setting": "[11]", "result": "> 100 µM (inactive)"}, {"measurement": "GI50", "setting": "[12]", "result": "> 100 µM (inactive)"}, {"measurement": "GI50", "setting": "[13]", "result": "> 100 µM (inactive)"}, {"measurement": "GI50", "setting": "[14]", "result": "> 100 µM (inactive)"}, {"measurement": "GI50", "setting": "[15]", "result": "> 100 µM (inactive)"}, {"measurement": "GI50", "setting": "[16]", "result": "> 100 µM (inactive)"}, {"measurement": "GI50", "setting": "[17]", "result": "> 100 µM (inactive)"}, {"measurement": "GI50", "setting": "[18]", "result": "> 100 µM (inactive)"}, {"measurement": "GI50", "setting": "[19]", "result": "> 100 µM (inactive)"}]}
{"smiles": "COc1ccc(/N=C2\\C(=O)C3=C(OC(C)(C)CC3)c3ccccc32)cc1", "values": [{"measurement": "GI50", "setting": "[1]", "result": "0.991 µM (active)"}, {"measurement": "GI50", "setting": "[2]", "result": "0.993 µM (active)"}, {"measurement": "GI50", "setting": "[3]", "result": "0.592 µM (active)"}, {"measurement": "GI50", "setting": "[4]", "result": "0.839 µM (active)"}, {"measurement": "GI50", "setting": "[5]", "result": "0.361 µM (active)"}, {"measurement": "GI50", "setting": "[6]", "result": "1.04 µM (active)"}, {"measurement": "GI50", "setting": "[7]", "result": "2.33 µM (inactive)"}, {"measurement": "GI50", "setting": "[8]", "result": "1.29 µM (inactive)"}, {"measurement": "GI50", "setting": "[9]", "result": "0.94 µM (active)"}, {"measurement": "GI50", "setting": "[10]", "result": "1.8 µM (inactive)"}, {"measurement": "GI50", "setting": "[11]", "result": "1.53 µM (inactive)"}, {"measurement": "GI50", "setting": "[12]", "result": "1.16 µM (inactive)"}, {"measurement": "GI50", "setting": "[13]", "result": "0.264 µM (active)"}, {"measurement": "GI50", "setting": "[14]", "result": "0.968 µM (active)"}, {"measurement": "GI50", "setting": "[15]", "result": "1.11 µM (active)"}, {"measurement": "GI50", "setting": "[16]", "result": "1.1 µM (active)"}, {"measurement": "GI50", "setting": "[17]", "result": "0.499 µM (active)"}, {"measurement": "GI50", "setting": "[18]", "result": "1.36 µM (inactive)"}, {"measurement": "GI50", "setting": "[19]", "result": "1.41 µM (inactive)"}]}
{"smiles": "CCN(CC)/[N+]([O-])=N/OCOC(C)=O", "values": [{"measurement": "GI50", "setting": "[1]", "result": "> 100 µM (inactive)"}, {"measurement": "GI50", "setting": "[2]", "result": "> 100 µM (inactive)"}, {"measurement": "GI50", "setting": "[3]", "result": "65.9 µM (inactive)"}, {"measurement": "GI50", "setting": "[4]", "result": "> 100 µM (inactive)"}, {"measurement": "GI50", "setting": "[5]", "result": "> 100 µM (inactive)"}, {"measurement": "GI50", "setting": "[6]", "result": "> 100 µM (inactive)"}, {"measurement": "GI50", "setting": "[7]", "result": "> 100 µM (inactive)"}, {"measurement": "GI50", "setting": "[8]", "result": "> 100 µM (inactive)"}, {"measurement": "GI50", "setting": "[9]", "result": "> 100 µM (inactive)"}, {"measurement": "GI50", "setting": "[10]", "result": "> 100 µM (inactive)"}, {"measurement": "GI50", "setting": "[11]", "result": "> 100 µM (inactive)"}, {"measurement": "GI50", "setting": "[12]", "result": "> 100 µM (inactive)"}, {"measurement": "GI50", "setting": "[13]", "result": "> 100 µM (inactive)"}, {"measurement": "GI50", "setting": "[14]", "result": "> 100 µM (inactive)"}, {"measurement": "GI50", "setting": "[15]", "result": "> 100 µM (inactive)"}, {"measurement": "GI50", "setting": "[16]", "result": "> 100 µM (inactive)"}, {"measurement": "GI50", "setting": "[17]", "result": "> 100 µM (inactive)"}, {"measurement": "GI50", "setting": "[18]", "result": "> 100 µM (inactive)"}, {"measurement": "GI50", "setting": "[19]", "result": "> 100 µM (inactive)"}]}
